One may read the LD50 as the dose at which mortality reaches 50%. The low end stands for greater toxicity, the high end for lower toxicity.

The values below come from patent US4418060A, “Therapeutically active complexes of tetracyclines” (priority 1971, dated 1983).

The conditions of data set [1]: cited from earlier work.
The test system of data set [2] is tetracycline-resistant Proteus strains. The settings on record: cited from earlier work.
The conditions of data set [3]: cited from earlier work. The source holds these as a separate data set.
The conditions of data set [4]: background statement; cited from earlier work.
For data set [5] the following is noted: cited from earlier work. The source holds these as a separate data set.
The conditions of data set [6]: per os; cited from earlier work.
Data set [7] in a line: Toxicity data (LD50) of tetracyclines and Tri-tetracyclines in mice. The settings on record: mouse, in vivo, oral.
Data set [8] in a line: Chloroform/water distribution quotient. It counts as physicochemical. The conditions noted are these: pH=7.4. An excerpt: The solution is filled into ampoules in nitrogen atmosphere.

For the molecule `NC(CO)(CO)CO` [tris(hydroxymethyl)aminomethane], the pK in data set [1] is 8.33.

With `CC(=O)C1=C(O)C2(O)C(=O)c3c(c(C)c4ccc(C)c(O)c4c3O)CC2C(N)C1=O` (stereo not drawn) [chelocardin, 2-decarboxamido-2-acetyl-4-dedimethylamino-4-epiamino-9-methyl-5a,6-anhydrotetracyline], the “effect against tetracycline-resistant Proteus” value in data set [2] was “effective”. In data set [3] (peroral), the absorption entry is listed as “low absorption value”. Also, in data set [4], the water solubility result is “lower than that of other tetracyclines”. In addition, the lipid solubility entry in data set [5] is “moderately lipid soluble”.

For `C[C@H]1c2cccc(O)c2C(O)=C2C(=O)[C@]3(O)C(O)=C(C(N)=O)C(=O)[C@@H](N(C)C)[C@@H]3[C@@H](O)[C@@H]21` [doxycycline, 6-deoxy-5-hydroxytetracycline], the gastrointestinal disorders entry in data set [6] is reported as “gastrointestinal disorders can be observed”. Further, the excretion result in data set [3] (in vivo) is reported as “with faeces as well”.

Take `CN(C)[C@@H]1C(=O)C(C(N)=O)=C(O)[C@@]2(O)C(=O)C3=C(O)c4c(O)cccc4[C@@](C)(O)[C@H]3[C@H](O)[C@@H]12` [OTC, 5-hydroxytetracycline]: in data set [7], the LD50 is 2500 mg/kg. In addition, in data set [8], the “chloroform/water distribution quotient K” value worked out at 0.008.
